Source: ChEMBL document CHEMBL1132028, “Glycolipids from sponges. VII. Simplexides, novel immunosuppressive glycolipids from the Caribbean sponge Plakortis simplex” (1999)

These molecules were tested on T-cell (assay: Inhibitory activity against murine immune-system T-cells stimulated with concanavalin-A at 100 ng/ml).
Format: functional, Mus musculus

Compound	Proliferation
CC(C)CCCCCCCCCCCCCCC(CCCCCCCCCCCCCCC(C)C)O[C@@H]1O[C@@H](CO)[C@H](O[C@H]2O[C@@H](CO)[C@@H](O)[C@H](O)[C@@H]2O)[C@H](O)[C@@H]1O	79%
CCCCCCCCCCCCCCCCCC(CCCCCCCCCCCCCCCCC)O[C@@H]1O[C@@H](CO)[C@H](O[C@H]2O[C@@H](CO)[C@@H](O)[C@H](O)[C@@H]2O)[C@H](O)[C@@H]1O	79%
CCCCCCCCCCCCCCCCCCC(CCCCCCCCCCCCCCCCC)O[C@@H]1O[C@@H](CO)[C@H](OC2O[C@@H](CO)[C@@H](O)[C@H](O)[C@@H]2O)[C@H](O)[C@@H]1O (stereo partly specified)	79%
CCCCCCCCCCCCCCCCC(CCCCCCCCCCCCCCC(C)CC)O[C@@H]1O[C@@H](CO)[C@H](O[C@H]2O[C@@H](CO)[C@@H](O)[C@H](O)[C@@H]2O)[C@H](O)[C@@H]1O (stereo partly specified)	79%
CCCCCCCCCCCCCCCCC(CCCCCCCCCCCCCCCC)O[C@@H]1O[C@@H](CO)[C@H](O[C@H]2O[C@@H](CO)[C@@H](O)[C@H](O)[C@@H]2O)[C@H](O)[C@@H]1O	79%
CCCCCCCCCCCCCCCCCCC(CCCCCCCCCCCCCCC(C)C)O[C@@H]1O[C@@H](CO)[C@H](OC2O[C@@H](CO)[C@@H](O)[C@H](O)[C@@H]2O)[C@H](O)[C@@H]1O (stereo partly specified)	79%
CCCCCCCCCCCCCCCCCCC(CCCCCCCCCCCCCCC(C)CC)O[C@@H]1O[C@@H](CO)[C@H](O[C@H]2O[C@@H](CO)[C@@H](O)[C@H](O)[C@@H]2O)[C@H](O)[C@@H]1O (stereo partly specified)	79%
CCCCCCCCCCCCCCCCC(CCCCCCCCCCCCCCC(C)C)O[C@@H]1O[C@@H](CO)[C@H](O[C@H]2O[C@@H](CO)[C@@H](O)[C@H](O)[C@@H]2O)[C@H](O)[C@@H]1O (stereo partly specified)	79%
CCCCCCCCCCCCCCCCCCC(CCCCCCCCCCCCCCCCCC)O[C@@H]1O[C@@H](CO)[C@H](O[C@H]2O[C@@H](CO)[C@@H](O)[C@H](O)[C@@H]2O)[C@H](O)[C@@H]1O	79%
CCCCCCCCCCCCCCCCCCC(CCCCCCCCCCCCCCCC)O[C@@H]1O[C@@H](CO)[C@H](O[C@H]2O[C@@H](CO)[C@@H](O)[C@H](O)[C@@H]2O)[C@H](O)[C@@H]1O (stereo partly specified)	79%
CCC(C)CCCCCCCCCCCCCCC(CCCCCCCCCCCCCCC(C)CC)O[C@@H]1O[C@@H](CO)[C@H](OC2O[C@@H](CO)[C@@H](O)[C@H](O)[C@@H]2O)[C@H](O)[C@@H]1O (stereo partly specified)	79%
CCC(C)CCCCCCCCCCCCCCC(CCCCCCCCCCCCCCC(C)C)O[C@@H]1O[C@@H](CO)[C@H](O[C@H]2O[C@@H](CO)[C@@H](O)[C@H](O)[C@@H]2O)[C@H](O)[C@@H]1O (stereo partly specified)	79%
CCCCCCCCCCCCCCCCCC(CCCCCCCCCCCCCCCC)O[C@@H]1O[C@@H](CO)[C@H](O[C@H]2O[C@@H](CO)[C@@H](O)[C@H](O)[C@@H]2O)[C@H](O)[C@@H]1O (stereo partly specified)	79%
CCCCCCCCCCCCCCCCCC(CCCCCCCCCCCCCCC(C)C)O[C@@H]1O[C@@H](CO)[C@H](O[C@H]2O[C@@H](CO)[C@@H](O)[C@H](O)[C@@H]2O)[C@H](O)[C@@H]1O (stereo partly specified)	79%
CCCCCCCCCCCCCCCCCC(CCCCCCCCCCCCCCC(C)CC)O[C@@H]1O[C@@H](CO)[C@H](O[C@H]2O[C@@H](CO)[C@@H](O)[C@H](O)[C@@H]2O)[C@H](O)[C@@H]1O (stereo partly specified)	79%

What follows are molecules tested on Plakortis simplex (assay: In vitro immunosuppressors activity against P. simplex; Potent).
Format: functional, organism-based

Compound	Activity
CCCCCCCCCCCC1CC1CCCCC/C=C/CC[C@@H](O)[C@H](CO[C@@H]1O[C@@H](CO)[C@H](O)[C@H](O)[C@@H]1OCC=C(C)C)NC(=O)[C@H](O)CC/C=C\CCCCC1CC1CCCCCCCCCC (stereo partly specified)	Potent

The molecules below were run on T-cell (assay: Inhibitory activity against murine immune-system T-cells stimulated with concanavalin-A at 10 ng/ml).
Format: functional, Mus musculus

Compound	Proliferation
CC(C)CCCCCCCCCCCCCCC(CCCCCCCCCCCCCCC(C)C)O[C@@H]1O[C@@H](CO)[C@H](O[C@H]2O[C@@H](CO)[C@@H](O)[C@H](O)[C@@H]2O)[C@H](O)[C@@H]1O	43%
CCCCCCCCCCCCCCCCCC(CCCCCCCCCCCCCCCCC)O[C@@H]1O[C@@H](CO)[C@H](O[C@H]2O[C@@H](CO)[C@@H](O)[C@H](O)[C@@H]2O)[C@H](O)[C@@H]1O	43%
CCCCCCCCCCCCCCCCCCC(CCCCCCCCCCCCCCCCC)O[C@@H]1O[C@@H](CO)[C@H](OC2O[C@@H](CO)[C@@H](O)[C@H](O)[C@@H]2O)[C@H](O)[C@@H]1O (stereo partly specified)	43%
CCCCCCCCCCCCCCCCC(CCCCCCCCCCCCCCC(C)CC)O[C@@H]1O[C@@H](CO)[C@H](O[C@H]2O[C@@H](CO)[C@@H](O)[C@H](O)[C@@H]2O)[C@H](O)[C@@H]1O (stereo partly specified)	43%
CCCCCCCCCCCCCCCCC(CCCCCCCCCCCCCCCC)O[C@@H]1O[C@@H](CO)[C@H](O[C@H]2O[C@@H](CO)[C@@H](O)[C@H](O)[C@@H]2O)[C@H](O)[C@@H]1O	43%
CCCCCCCCCCCCCCCCCCC(CCCCCCCCCCCCCCC(C)C)O[C@@H]1O[C@@H](CO)[C@H](OC2O[C@@H](CO)[C@@H](O)[C@H](O)[C@@H]2O)[C@H](O)[C@@H]1O (stereo partly specified)	43%
CCCCCCCCCCCCCCCCCCC(CCCCCCCCCCCCCCC(C)CC)O[C@@H]1O[C@@H](CO)[C@H](O[C@H]2O[C@@H](CO)[C@@H](O)[C@H](O)[C@@H]2O)[C@H](O)[C@@H]1O (stereo partly specified)	43%
CCCCCCCCCCCCCCCCC(CCCCCCCCCCCCCCC(C)C)O[C@@H]1O[C@@H](CO)[C@H](O[C@H]2O[C@@H](CO)[C@@H](O)[C@H](O)[C@@H]2O)[C@H](O)[C@@H]1O (stereo partly specified)	43%
CCCCCCCCCCCCCCCCCCC(CCCCCCCCCCCCCCCCCC)O[C@@H]1O[C@@H](CO)[C@H](O[C@H]2O[C@@H](CO)[C@@H](O)[C@H](O)[C@@H]2O)[C@H](O)[C@@H]1O	43%
CCCCCCCCCCCCCCCCCCC(CCCCCCCCCCCCCCCC)O[C@@H]1O[C@@H](CO)[C@H](O[C@H]2O[C@@H](CO)[C@@H](O)[C@H](O)[C@@H]2O)[C@H](O)[C@@H]1O (stereo partly specified)	43%
CCC(C)CCCCCCCCCCCCCCC(CCCCCCCCCCCCCCC(C)CC)O[C@@H]1O[C@@H](CO)[C@H](OC2O[C@@H](CO)[C@@H](O)[C@H](O)[C@@H]2O)[C@H](O)[C@@H]1O (stereo partly specified)	43%
CCC(C)CCCCCCCCCCCCCCC(CCCCCCCCCCCCCCC(C)C)O[C@@H]1O[C@@H](CO)[C@H](O[C@H]2O[C@@H](CO)[C@@H](O)[C@H](O)[C@@H]2O)[C@H](O)[C@@H]1O (stereo partly specified)	43%
CCCCCCCCCCCCCCCCCC(CCCCCCCCCCCCCCCC)O[C@@H]1O[C@@H](CO)[C@H](O[C@H]2O[C@@H](CO)[C@@H](O)[C@H](O)[C@@H]2O)[C@H](O)[C@@H]1O (stereo partly specified)	43%
CCCCCCCCCCCCCCCCCC(CCCCCCCCCCCCCCC(C)C)O[C@@H]1O[C@@H](CO)[C@H](O[C@H]2O[C@@H](CO)[C@@H](O)[C@H](O)[C@@H]2O)[C@H](O)[C@@H]1O (stereo partly specified)	43%
CCCCCCCCCCCCCCCCCC(CCCCCCCCCCCCCCC(C)CC)O[C@@H]1O[C@@H](CO)[C@H](O[C@H]2O[C@@H](CO)[C@@H](O)[C@H](O)[C@@H]2O)[C@H](O)[C@@H]1O (stereo partly specified)	43%
